In patent publication US20130178453A1, “Cannabinoid Agonists” (priority 2010, published 2013) one finds EC50 and IC50 data, which are given here for 15 compounds.

Structures are written as SMILES. Where “and” joins values, the source holds several entries; their conditions need not be identical. Equal values may be shown once.

Assay [1] has as its target T1, hCB2 (Homo sapiens, UniProt P34972). The assay can be described thus: hCB2 GTPγS agonist assay (HEK-293 membranes). The assay is classed as biochemical. A digest of the protocol: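 Membranes from HEK-293 cells transfected with human CB2 (5 μg) incubated with SPA beads, 0.1 nM [35S]GTPγS and 20 uM GDP in 50 mM HEPES pH 7.4, 100 mM NaCl, 5 mM MgCl2, 0.001% saponin. Incubation 90 min at room temperature. Agonist-stimulated binding read by scintillation counting.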

Assay [2] deals with T1, hCB2. Put plainly: hCB2 cAMP agonist assay (HEK-293 cells). The assay is classed as cell-based. In short, it runs like this:
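HEK-293 cells stably expressing hCB2, treated 30 min at 37° C with compound in HBSS/10 mM HEPES/0.1% BSA alongside forskolin (90 uM in the 3× solution, not final).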

Assay [3] concerns the target T2, hCB1 (Homo sapiens, UniProt P21554). The assay can be described thus: hCB1 GTPγS agonist assay (HEK-293 membranes). The assay is classed as biochemical. An excerpt: cDNA expression clones for human CB 1 (hCB1, Genbank Accession No. AY225225) and human CB2 (hCB2, Genbank Accession No. AY242132) expressed in vector pcDNA3.1+ were purchased from UMR cDNA Resource Center, Rolla, Mo. (Clone ID CNR01L000 for hCB1; CNR0200000 for hCB2).
Stable, HEK-293-derived cell lines that recombinantly express hCB1 or hCB2 were established. In brief, the clone hCB1 (CNR1L) or hCB2 (CNR2) was transfected into human embryonic kidney cells (HEK-293) using Lipofectamine 2000 (Gibco, Cat#11668-019) according to the manufacturer's protocol. Transfected clones were isolated by single colony purification and clones were screened for receptor expression using a whole cell, ^3H—CP 55,940 radioligand binding assay. HEK-293 stable cells were maintained in Dulbecco's modified Eagles medium (DMEM) containing 10% fetal bovine serum, 2 mM L-glutamine and 0.5 mg/mL G-418.
Membranes were isolated from transfected cells as follows. Monolayers of cultured cells were washed twice with phosphate-buffered saline (PBS). Cells were scraped into 20 mM HEPES, pH 7.4, 10 mM EDTA containing complete cocktail protease inhibitors (Roche, Catalog #11 697 498 001), and were homogenized by an electric-powered mechanical probe homogenizer (Omni GLH; probe G7-195S) for 40 seconds at 7000 rpm. Homogenates were centrifuged 10 minutes at 1000×g at 4° C. The supernatant was collected and was centrifuged for 1 hour at 40,000×g. The supernatant was then decanted and the resulting pellet was re-suspended in 20 mM HEPES, pH 7.4, 5 mM MgCl2, 1 mM EDTA, 10% sucrose with complete cocktail protease inhibitors. Protein concentration of membrane suspensions were measured by Bradford Protein Assay using bovine serum albumin as the standard (BioRad catalog #500-0006). Protein concentrations of membrane suspensions were adjusted with the final buffer in the range of 5 to 10 mg/mL and were stored at −80° C. until further use.
^35S GTPγS binding assays were performed by incubating recombinant cell membranes prepared above (5 μg) in the presence of scintillation proximity assay beads (SPA beads, Catalog #RPNQ0252 GE Healthcare, Buckinghamshire, England) in GTPγS binding buffer [50 mM HEPES (pH 7.4), 100 mM NaCl, 5 mM MgCl2, 0.001% saponin (Sigma catalog #S4521)] supplemented with 20 uM GDP (Sigma catalog #G7127) in the presence or absence of test compound. The reaction was carried out in 96-well microplates with 0.1 nM [^35S]GTPγS (specific activity=1250 Ci/mmol; Perkin Elmer catalog #NEG030X250UC) in a final volume of 100 μL. After a 90 min room temperature incubation, the reaction was analyzed using a scintillation counter (Perkin Elmer Microbeta instrument). Binding data were analyzed using GraphPad Prism.

Assay [4] addresses T2, hCB1. Put plainly: hCB1 radioligand binding assay ([3H]-CP 55,940 displacement). Particulars: hCB1 IC50 (CP displ, nM, HEK), HEK membranes. In short, it runs like this: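 Membranes from stable HEK-293 cells expressing recombinant hCB1 (2-10 μg protein) incubated 90 minutes at room temperature with 0.5 nM [3H]-CP 55,940 in 50 mM Tris-HCl pH 7.5, 5 mM MgCl2, 2.5 mM EDTA, 0.1% fatty acid free BSA. Filtration then scintillation counting; nonspecific binding with 1 μM unlabelled CP 55,940.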

Assay [5] addresses T1, hCB2. The assay can be described thus: hCB2 radioligand binding assay ([3H]-CP 55,940 displacement). Particulars: hCB2 IC50 (CP displ, nM, HEK), HEK membranes. In short, it runs like this: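 Membranes from cells transfected with human CB2 cDNA (pcDNA3.1+), kept in 20 mM HEPES pH 7.4, MgCl2, EDTA, sucrose with protease inhibitors.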
The target in assay [6] is T2, hCB1. The assay can be described thus: hCB1 cAMP agonist assay (HEK-293 cells). The assay is classed as cell-based.
[7] abbreviates: GTPγS agonist, HEK membranes, read-out: hCB1 EC50 (GTPyS ag, nM, HEK).
Setting [8] is: cAMP agonist, HEK, 96-well, read-out: hCB1 EC50 (cAMP ag, nM, HEK (96-well)).

T1 sequence (P34972 whole entry): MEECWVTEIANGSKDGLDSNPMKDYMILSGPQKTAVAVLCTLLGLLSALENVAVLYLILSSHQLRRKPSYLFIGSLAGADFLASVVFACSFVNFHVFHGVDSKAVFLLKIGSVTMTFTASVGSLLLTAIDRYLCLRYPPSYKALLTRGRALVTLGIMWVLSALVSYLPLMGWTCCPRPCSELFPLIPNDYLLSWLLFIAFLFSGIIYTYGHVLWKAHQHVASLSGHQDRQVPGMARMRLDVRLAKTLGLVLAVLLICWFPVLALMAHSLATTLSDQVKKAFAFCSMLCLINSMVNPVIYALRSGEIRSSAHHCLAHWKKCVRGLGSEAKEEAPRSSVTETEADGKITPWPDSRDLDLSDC
T2 sequence (P21554 whole entry): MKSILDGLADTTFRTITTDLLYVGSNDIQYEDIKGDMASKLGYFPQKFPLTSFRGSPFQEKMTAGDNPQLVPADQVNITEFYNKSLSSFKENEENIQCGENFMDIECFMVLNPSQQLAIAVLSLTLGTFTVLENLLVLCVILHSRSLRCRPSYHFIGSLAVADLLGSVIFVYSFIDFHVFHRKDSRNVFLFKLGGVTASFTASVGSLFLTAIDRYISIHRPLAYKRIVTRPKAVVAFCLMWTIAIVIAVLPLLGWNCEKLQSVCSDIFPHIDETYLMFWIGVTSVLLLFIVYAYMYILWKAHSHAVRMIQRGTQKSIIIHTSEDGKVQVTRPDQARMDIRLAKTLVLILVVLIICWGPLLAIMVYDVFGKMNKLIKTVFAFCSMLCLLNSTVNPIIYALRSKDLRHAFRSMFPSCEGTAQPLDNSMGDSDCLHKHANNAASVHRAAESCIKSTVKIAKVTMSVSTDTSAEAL

One may read the EC50 as the concentration needed to bring the measured effect to its halfway point. In general, IC50 refers to the concentration that inhibits the measured activity by half. As for `CCCn1c(C(=O)c2c(C)n(CCN3CCOCC3)c3sccc23)cc2ccccc21` [Compound I-11], the EC50 is below 0.1 µM on hCB2 [1], below 0.1 µM on hCB2 [2] and 100 to 1000 nM at hCB1 [3] (setting [7]). Besides, the IC50 at hCB1 [4] and at hCB2 [5] was below 100 nM throughout.
Turning to `CCn1c(C(=O)c2cn(CC3CCOCC3)c3ccccc23)cc2ccsc21` [Compound I-16], the EC50 on hCB2 [1] is below 0.1 µM; on hCB2 [2] it was below 0.1 µM; at hCB1 [3], below 100 nM; at hCB1 [6] it was below 100 nM. Further, the IC50 on hCB1 [4] and at hCB2 [5] was below 100 nM throughout.
As to `CCn1c(C(=O)c2cn(CCCNS(C)(=O)=O)c3ccccc23)cc2ccsc21` [Compound I-28], the concentration giving a half-maximal response (EC50) was below 0.1 µM at hCB2 [1], below 0.1 µM at hCB2 [2], 1000 to 10000 nM at hCB1 [3] (setting [7]) and 100 to 1000 nM at hCB1 [6] (setting [8]). The 50% inhibitory concentration (IC50) at hCB1 [4] was 100 to 1000 nM; on hCB2 [5], below 100 nM.
Take `CCCn1cc(C(=O)c2cc3ccsc3n2CC)c2cccnc21` [Compound I-34]: the half-maximal effective concentration (EC50) at hCB2 [1] is below 0.1 µM; on hCB2 [2], below 0.1 µM; at hCB1 [3] it was 100 to 1000 nM; on hCB1 [6], 1000 to 10000 nM. Besides, the half-inhibitory concentration (IC50) on hCB1 [4] is 1000 to 10000 nM; on hCB2 [5] it was below 100 nM.
In the case of `CCCn1c(C(=O)c2cn(CC3CCOCC3)c3ccccc23)cc2ccsc21` [Compound I-41], the EC50 is below 0.1 µM on hCB2 [1], below 0.1 µM on hCB2 [2], below 100 nM at hCB1 [3] and below 100 nM on hCB1 [6]. Moreover, the IC50 on hCB1 [4] and on hCB2 [5] was below 100 nM in each case.
For `CCCn1c(C(=O)c2cn(CC)c3ccccc23)cc2ccsc21` [Compound I-42], the half-maximal effective concentration (EC50) at hCB2 [1] is below 0.1 µM; on hCB2 [2] it was below 0.1 µM; on hCB1 [3] (setting [7]) it was 100 to 1000 nM; on hCB1 [6] (setting [8]), 100 to 1000 nM. Besides, the IC50 on hCB1 [4] and on hCB2 [5] was below 100 nM throughout.
Take `CCCn1cc(C(=O)c2cc3ccsc3n2CCC)c2cccnc21` [Compound I-45]: the half-maximal effective concentration (EC50) at hCB2 [1] was below 0.1 µM; at hCB2 [2], below 0.1 µM; on hCB1 [3], 100 to 1000 nM; on hCB1 [6], 100 to 1000 nM. The IC50 was < 100 nM and 100 to 1000 nM on hCB1 [4]; below 100 nM on hCB2 [5].
For the compound `CCCn1c(C(=O)c2c(C)n(CCC3CCOCC3)c3ccccc23)cc2ccsc21` [Compound I-57], the concentration giving a half-maximal response (EC50) on hCB2 [1] is below 0.1 µM; on hCB2 [2], below 0.1 µM; on hCB1 [3], 100 to 1000 nM; on hCB1 [6], 100 to 1000 nM. Further, the results for the IC50 on hCB1 [4] and on hCB2 [5] were 100 to 1000 nM and below 100 nM, respectively.
On to `CCCCCn1c(C)c(C(=O)c2cc3ccsc3n2CCC)c2ccccc21` [Compound I-60], for which the half-maximal effective concentration (EC50) was below 0.1 µM on hCB2 [1], below 0.1 µM on hCB2 [2], 100 to 1000 nM on hCB1 [3] and below 100 nM on hCB1 [6]. For the same compound, the IC50 at hCB1 [4] and on hCB2 [5] was below 100 nM throughout.
Turning to `CCCn1cc(C(=O)c2cc3ccsc3n2CCC)c2ccccc21` [Compound I-62], the EC50 at hCB2 [1] is below 0.1 µM; at hCB2 [2] it was below 0.1 µM; on hCB1 [3], 100 to 1000 nM; on hCB1 [6] it was below 100 nM. The half-inhibitory concentration (IC50) at hCB1 [4] and on hCB2 [5] was below 100 nM throughout.
Take `CCCn1c(C(=O)c2c(C)n(CC3CCOCC3)c3ccccc23)cc2ccsc21` [Compound I-66]: the EC50 is below 0.1 µM on hCB2 [1], below 0.1 µM at hCB2 [2], 100 to 1000 nM at hCB1 [3] and below 100 nM at hCB1 [6]. The results for the 50% inhibitory concentration (IC50) on hCB1 [4] and on hCB2 [5] were 100 to 1000 nM and below 100 nM, respectively.
On to `CCCn1cc(C(=O)c2cc3ccsc3n2CC)c2ccccc21` [Compound I-70], for which the EC50 on hCB2 [1] is below 0.1 µM; at hCB2 [2], below 0.1 µM; on hCB1 [3] it was 100 to 1000 nM; on hCB1 [6], 100 to 1000 nM. The IC50 is 100 to 1000 nM at hCB1 [4] and below 100 nM on hCB2 [5].
`CCCn1c(C(=O)c2c(C)n(CCC)c3sccc23)cc2ccsc21` [Compound I-83]: the EC50 at hCB2 [2] was below 0.1 µM; on hCB1 [3] (setting [7]), 100 to 1000 nM; on hCB1 [6] (cAMP agonist, HEK, 24-well, read-out: hCB1 EC50 (cAMP ag, nM HEK (24-well))), below 100 nM; on hCB1 [6] (setting [8]) it was below 100 nM.
Consider `CCCn1c(C(=O)c2c(C)[nH]c3sccc23)cc2ccsc21` [Compound I-84], for which the 50% effective concentration (EC50) at hCB1 [3] (setting [7]) is above 10000 nM; at hCB1 [6] (setting [8]), below 100 nM.
As to `CCn1c(C(=O)c2c3c(n(CC4CCOCC4)c2C)CCCC3)cc2ccsc21` [Compound I-86], the half-maximal effective concentration (EC50) is below 0.1 µM at hCB2 [1], below 0.1 µM on hCB2 [2], 100 to 1000 nM on hCB1 [3] (setting [7]) and 100 to 1000 nM on hCB1 [6] (setting [8]). Also, the half-inhibitory concentration (IC50) on hCB1 [4] and on hCB2 [5] was below 100 nM throughout.
